One assay deals with Kaposi's sarcoma. Description: DNP hyperthermia, Kaposi's sarcoma lesions (Example 2). It is filed as in vivo, human. Here is the method:
Pretreatment protocol: all medications were stopped 2 weeks prior to treatment. The patient refused taking diazepam, placement of a Foley catheter and oxygen face mask. They dressed themself into a dry cold water immersion suit (Stearns, ISS-590I, Universal Adult) designed to prevent heat loss and modified for easy placement of physiologic monitors. Equipment for measurement of heart rate, temperature, carbon dioxide production and Kcal of heat produced were conducted as outlined in Example 1. An oral breathing tube was used to measure V02 from room air. Urine output was measured when the patient voluntarily urinated through a “Texas” catheter (superficial condom tightly fitted around the head of the penis with tubing connected to urine collection bag). The patient was informed that hyperthermia would be administered as tolerated by their stamina and monitored clinical parameters, not to exceed 5 hours, on a daily or every other day basis, for a total of 5 sessions.
Treatment procedure: Baseline reading for 5 minutes established an average V02 of 300 cc/min. An initial dose of 2 mg/kg of DNP was administered over a 2 minute period. V02 increased and stabilized at 15 minutes at 340-380 cc/min. An additional 2 mg/kg DNP infusion was given, the V02 increased and stabilized at 610-630 cc/min. […]

Another assay relates to glioma. Description: DNP enhanced PET-FDG scan, glioma (Example 7). The format is in vivo, human. The arrangement: key to metabolic grade of FDG uptake, selected target / metabolic grade, hypermetabolic component in the tumor area / metabolic grade, remaining viable tumor: I: FDG uptake less than contralateral white matter; II: uptake between the levels in contralateral white and gray matter; III: FDG uptake equal to or greater than in contralateral gray matter. From the text: Pretreatment protocol: three days prior to DNP dosing and repeat PET-FDG scan, the patient's dosage of phenyloin was increased from 100-mg three times daily to 200-mg three times a day. The same positron emission tomogram, a CTI-Siemens 933/08-12 which provides a 6.75-mm adjacent slices and in-plane spatial resolution (full-width at half maximum) of ˜5 mm, was to be used. The highest level of non to DNP stimulated FDG uptake in the tumor area was to be compared and qualitatively graded by two radiologists. Independently, each investigator was to visually evaluate the positron emission tomogram and use the following metabolic grading scale: I, FDG uptake less than contralateral white matter; II, uptake between the levels in contralateral white and gray matter; III, FDG uptake equal to or greater than in contralateral gray matter.
Diagnostic—treatment protocol: the patient was given a 300 mg capsule of DNP (approximately 4 mg/kg body weight) three hours prior to undergoing a PET-FDG scan. Forty minutes prior to the emission scan they were intravenously injected with a bolus of FDG according to standard methodology. Immediately prior to the 20-minute emission scan the patients VO2 uptake was 40% above that at baseline. The patients DNP/VO2 flow chart is FIG. 24.

[1] abbreviates: DNP enhancement, one year after diagnosis and therapy.

Structures are written as SMILES.

For the compound `O=[N+]([O-])c1ccc(O)c([N+](=O)[O-])c1` [DNP, 2,4-dinitrophenol], the “anal tumor diminished in size” value in the assay on Kaposi's sarcoma (5th and last day of therapy) is reported as “approximately 60%”. The “oral and anal KS lesions” value with Kaposi's sarcoma (30 days post-treatment) is “complete regression of both oral and anal KS lesions”. Moreover, in the assay on glioma (300 mg oral DNP, none without DNP), the “DNP enhanced PET-FDG scan finding” value is “two areas of hypermetabolism”. The “metabolic grade of FDG uptake, selected target” value with glioma (DNP enhanced PET-FDG scan) is “III”. Moreover, in the assay with glioma (setting [1]), the “metabolic grade, hypermetabolic component in the tumor area” value was “II” and the “metabolic grade, remaining viable tumor” value is listed as “I”.

For the origin of these results see US7635722B1, “Chemical induced intracellular hyperthermia” (priority 1998, dated 2009).
